# Measurements from ChEMBL document CHEMBL4715888, “Synthetic approaches to unsymmetrical 2,5-disubstituted 1,3,4-oxadiazoles and their MAO-B inhibitory activity. A review” (Bioorg Med Chem, 2021).
# Legend:
# [1] = molecular target: T1, Amine oxidase [flavin-containing] B (Rattus norvegicus, UniProt P19643); test: Competitive inhibition of Sprague-Dawley rat brain mitochondrial MAO-B using PEA as substrate by Lineweaver-Burk plot analysis
# T1 sequence (P19643 whole entry): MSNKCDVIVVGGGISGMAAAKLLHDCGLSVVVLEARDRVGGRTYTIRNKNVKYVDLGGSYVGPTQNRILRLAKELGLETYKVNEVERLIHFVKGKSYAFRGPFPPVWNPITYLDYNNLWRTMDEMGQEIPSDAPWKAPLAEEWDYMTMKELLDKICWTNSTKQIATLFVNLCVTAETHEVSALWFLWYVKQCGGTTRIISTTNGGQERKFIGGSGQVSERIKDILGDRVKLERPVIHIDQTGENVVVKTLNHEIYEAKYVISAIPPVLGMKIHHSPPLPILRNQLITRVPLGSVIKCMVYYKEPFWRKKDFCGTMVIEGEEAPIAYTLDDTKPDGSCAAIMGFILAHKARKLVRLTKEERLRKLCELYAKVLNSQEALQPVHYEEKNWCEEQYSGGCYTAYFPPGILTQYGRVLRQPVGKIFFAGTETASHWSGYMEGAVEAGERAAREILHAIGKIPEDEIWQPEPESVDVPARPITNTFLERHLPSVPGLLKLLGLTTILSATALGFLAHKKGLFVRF
# Rattus norvegicus = species on record: Rattus norvegicus; test: Selectivity ratio of IC50 for Sprague-Dawley rat brain mitochondrial MAO-A to IC50 for Sprague-Dawley rat brain mitochondrial MAO-B
# [2] = molecular target: T1, Amine oxidase [flavin-containing] B; test: Inhibition of Sprague-Dawley rat brain mitochondrial MAO-B using PEA as substrate preincubated for 60 mins; conditions: read-out: Kieq
# [3] = molecular target: T2, Amine oxidase [flavin-containing] A (Rattus norvegicus, UniProt P21396); test: Inhibition of Sprague-Dawley rat brain mitochondrial MAO-A using [14C]-5-HT as substrate by radioassay method
# T2 sequence (P21396 whole entry): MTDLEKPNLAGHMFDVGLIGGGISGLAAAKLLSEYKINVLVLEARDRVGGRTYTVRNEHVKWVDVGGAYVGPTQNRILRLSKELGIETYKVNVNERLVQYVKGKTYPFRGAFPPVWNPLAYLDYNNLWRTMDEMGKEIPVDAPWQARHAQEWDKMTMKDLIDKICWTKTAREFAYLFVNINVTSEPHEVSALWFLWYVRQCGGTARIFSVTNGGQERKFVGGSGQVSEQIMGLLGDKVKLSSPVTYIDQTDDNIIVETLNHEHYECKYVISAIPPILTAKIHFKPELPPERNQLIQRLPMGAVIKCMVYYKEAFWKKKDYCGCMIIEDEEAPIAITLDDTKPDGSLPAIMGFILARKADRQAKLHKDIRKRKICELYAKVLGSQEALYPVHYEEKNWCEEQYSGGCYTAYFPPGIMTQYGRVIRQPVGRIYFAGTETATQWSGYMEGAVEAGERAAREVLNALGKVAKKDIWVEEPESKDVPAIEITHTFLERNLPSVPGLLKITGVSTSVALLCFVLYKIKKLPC
# [4] = molecular target: T1, Amine oxidase [flavin-containing] B; test: Inhibition of Sprague-Dawley rat brain mitochondrial MAO-B using [14C]-PEA as substrate by radioassay method
# [5] = molecular target: T1, Amine oxidase [flavin-containing] B; test: Inhibition of Sprague-Dawley rat brain mitochondrial MAO-B using [14C]-PEA as substrate preincubated for 120 mins by radiochemical method
# [6] = molecular target: T1, Amine oxidase [flavin-containing] B; test: Inhibition of Sprague-Dawley rat brain mitochondrial MAO-B using [14C]-PEA as substrate preincubated for 60 mins by radiochemical method
Ki [1] [nM],Ratio IC50 (Rattus norvegicus),Ki [2] [nM],IC50 [3] [nM],IC50 [4] [nM],IC50 [5] [nM],IC50 [6] [nM],Structure (SMILES)
220,> 71400,0.7,,,,,N#CCCn1nc(-c2ccc(OCc3ccccc3)cc2)oc1=O
,139,,7800,56,,,N#CCCn1nc(-c2ccc(-c3ccccc3)cc2)oc1=O
,304,,22500,74,,,N#CCCn1nc(-c2ccc(-c3ccccc3)cc2)oc1=S
,> 3200,,,,,,N#CCCn1nc(-c2ccc(OCc3ccccc3)cc2)oc1=S
,> 30400,,,,4.7,4.7,O=c1oc(-c2ccc(OCc3ccccc3)cc2)nn1CCO
